Measured values taken from patent US10722496B2, “2-iminobiotin for use in the treatment of brain cell injury” (Neurophyxia B.V., priority 2015, dated 2020).
“And” between values parts separate entries of the source, which are not always exact repeats. Equal entries are not always repeated.

Assay: Pharmacokinetics in adults after out of hospital cardiac arrest (Example 5B)
Type: in vivo, human
Design: Obs. AUCinf (based on weight): unit not given here
Method: Namely, a first cohort of eight patients received 2-IB in a dose of 0.055 mg/kg/dose every 4 hours iv, 6 times in total (part A; i.e., 0.33 mg/kg/day).
The eight adults that suffered an out of hospital cardiac arrest were treated with 2-IB as a 15-minute IV infusion every 4 hours for 6 administrations. Target temperature management was used to maintain body temperature of 36.0 (median).
Models were generated in order to determine the impact of dose adjustments and variability of AUC.
An exploratory covariate analysis was performed looking at body weight, age, eGFR, SeCre, and Core temperature.

[1] = Table 4, basic model, Max of 8 patients
[2] = Table 4, basic model, Mean of 8 patients
[3] = Table 4, basic model, Median of 8 patients
[4] = Table 4, basic model, Min of 8 patients
[5] = Table 4, basic model, OHCA patients, 0.055 mg/kg/dose iv every 4 hours x6, individual patient (ID 1-8), 0.055 mg/kg
[6] = Table 5, covariate model with Crea0, Max of 8 patients
[7] = Table 5, covariate model with Crea0, Mean of 8 patients
[8] = Table 5, covariate model with Crea0, Median of 8 patients
[9] = Table 5, covariate model with Crea0, Min of 8 patients
[10] = Table 5, covariate model with Crea0, OHCA patients, 0.055 mg/kg/dose iv every 4 hours x6, individual patient (ID 1-8), 0.055 mg/kg
[11] = Table 9, eGFR0 (eGFR at baseline) model, OHCA patients, 0.055 mg/kg/dose iv every 4 hours x6, individual patient (ID 1-8), 0.055 mg/kg
[12] = Table 9, eGFR0 model, Max of 8 patients
[13] = Table 9, eGFR0 model, Mean of 8 patients
[14] = Table 9, eGFR0 model, Median of 8 patients
[15] = Table 9, eGFR0 model, Min of 8 patients
[16] = exploratory covariate analysis, 8 OHCA patients

Question: With `N=C1N[C@H]2[C@H](CS[C@H]2CCCCC(=O)O)N1` [2-IB, 2-iminobiotin] as the molecule, how does the AUC cumul. [1] read?
Answer: 5613 ng·h/mL

Question: And the AUCinf [1]?
Answer: 1242 ng·h/mL

Question: What about the CL [1] of the same molecule?
Answer: 22.3 L/h

Question: And the V [1]?
Answer: 33.6 L

Question: And the VSS [1]?
Answer: 43.5 L

Question: And the thalf [1]?
Answer: 6.3 h

Question: And the AUC cumul. [2]?
Answer: 3238 ng·h/mL

Question: What about the AUCinf [2] of the same molecule?
Answer: 625 ng·h/mL

Question: What about the CL [2] of the same molecule?
Answer: 11.7 L/h

Question: What about the V [2] of the same molecule?
Answer: 14.9 L

Question: What about the VSS [2] of the same molecule?
Answer: 24.9 L

Question: And the thalf [2]?
Answer: 2.5 h

Question: What about the AUC cumul. [3] of the same molecule?
Answer: 2777 ng·h/mL

Question: What about the AUCinf [3] of the same molecule?
Answer: 478 ng·h/mL

Question: What about the CL [3] of the same molecule?
Answer: 9.5 L/h

Question: And the V [3]?
Answer: 12.7 L

Question: What about the VSS [3] of the same molecule?
Answer: 22.7 L

Question: What about the thalf [3] of the same molecule?
Answer: 1.6 h

Question: And the AUC cumul. [4]?
Answer: 1236 ng·h/mL

Question: What about the AUCinf [4] of the same molecule?
Answer: 209 ng·h/mL

Question: And the CL [4]?
Answer: 4.9 L/h

Question: What about the V [4] of the same molecule?
Answer: 5.0 L

Question: What about the VSS [4] of the same molecule?
Answer: 14.9 L

Question: What about the thalf [4] of the same molecule?
Answer: 1.0 h

Question: What about the AUC cumul. [5] of the same molecule?
Answer: 5613 ng·h/mL and 4680 ng·h/mL and 3521 ng·h/mL and 5386 ng·h/mL and 1858 ng·h/mL and 2032 ng·h/mL and 1236 ng·h/mL and 1577 ng·h/mL

Question: And the AUCinf [5]?
Answer: 1152 ng·h/mL and 860 ng·h/mL and 612 ng·h/mL and 1242 ng·h/mL and 315 ng·h/mL and 343 ng·h/mL and 209 ng·h/mL and 265 ng·h/mL

Question: And the CL [5]?
Answer: 6.4 L/h and 5.8 L/h and 7.6 L/h and 4.9 L/h and 11.4 L/h and 18.3 L/h and 22.3 L/h and 16.7 L/h

Question: And the V [5]?
Answer: 24.3 L and 11.3 L and 7.3 L and 33.6 L and 5.0 L (2×) and 14.1 L and 19.0 L

Question: And the VSS [5]?
Answer: 34.3 L and 21.3 L and 17.3 L and 43.5 L and 15.0 L and 24.1 L and 28.9 L and 14.9 L

Question: What about the thalf [5] of the same molecule?
Answer: 3.9 h and 2.8 h and 1.9 h and 6.3 h and 1.3 h and 1.2 h (2×) and 1.0 h

Question: What about the AUC cumul. [6] of the same molecule?
Answer: 5934 ng·h/mL

Question: What about the AUCinf [6] of the same molecule?
Answer: 1235 ng·h/mL

Question: And the CL [6]?
Answer: 17.9 L/h

Question: And the V [6]?
Answer: 34.1 L

Question: And the VSS [6]?
Answer: 43.4 L

Question: And the thalf [6]?
Answer: 5.4 h

Question: What about the AUC cumul. [7] of the same molecule?
Answer: 3226 ng·h/mL

Question: What about the AUCinf [7] of the same molecule?
Answer: 614 ng·h/mL

Question: And the CL [7]?
Answer: 11.0 L/h

Question: And the V [7]?
Answer: 15.4 L

Question: What about the VSS [7] of the same molecule?
Answer: 24.7 L

Question: What about the thalf [7] of the same molecule?
Answer: 2.3 h

Question: What about the AUC cumul. [8] of the same molecule?
Answer: 2405 ng·h/mL

Question: What about the AUCinf [8] of the same molecule?
Answer: 408 ng·h/mL

Question: And the CL [8]?
Answer: 10.2 L/h

Question: And the V [8]?
Answer: 13.2 L

Question: What about the VSS [8] of the same molecule?
Answer: 22.5 L

Question: And the thalf [8]?
Answer: 1.5 h

Question: What about the AUC cumul. [9] of the same molecule?
Answer: 1615 ng·h/mL

Question: What about the AUCinf [9] of the same molecule?
Answer: 271 ng·h/mL

Question: And the CL [9]?
Answer: 5.6 L/h

Question: And the V [9]?
Answer: 4.7 L

Question: And the VSS [9]?
Answer: 14.0 L

Question: What about the thalf [9] of the same molecule?
Answer: 1.0 h

Question: What about the AUC cumul. [10] of the same molecule?
Answer: 5934 ng·h/mL and 4803 ng·h/mL and 2726 ng·h/mL and 4886 ng·h/mL and 2063 ng·h/mL and 2085 ng·h/mL and 1694 ng·h/mL and 1615 ng·h/mL

Question: What about the AUCinf [10] of the same molecule?
Answer: 1235 ng·h/mL and 884 ng·h/mL and 464 ng·h/mL and 1063 ng·h/mL and 349 ng·h/mL and 352 ng·h/mL and 291 ng·h/mL and 271 ng·h/mL

Question: What about the CL [10] of the same molecule?
Answer: 6.0 L/h and 5.6 L/h and 10.0 L/h and 5.7 L/h and 10.3 L/h and 17.9 L/h and 16.0 L/h and 16.3 L/h

Question: What about the V [10] of the same molecule?
Answer: 24.5 L and 11.8 L and 7.2 L and 34.1 L and 4.7 L and 14.5 L and 21.3 L and 5.1 L

Question: What about the VSS [10] of the same molecule?
Answer: 33.8 L and 21.1 L and 16.5 L and 43.4 L and 14.0 L and 23.8 L and 30.6 L and 14.4 L

Question: And the thalf [10]?
Answer: 4.1 h and 2.8 h and 1.4 h and 5.4 h and 1.3 h and 1.2 h and 1.5 h and 1.0 h

Question: What about the “Obs. AUCinf (based on weight)” value (Table 8, covariate model with Crea0, individual patient (ID 1-8)) of the same molecule?
Answer: 291 and 271 and 1235 and 884 and 464 and 1063 and 349 and 352

Question: What about the AUC [11] of the same molecule?
Answer: 5905 ng·h/mL and 4813 ng·h/mL and 2712 ng·h/mL and 4896 ng·h/mL and 2060 ng·h/mL and 2061 ng·h/mL and 1705 ng·h/mL and 1636 ng·h/mL

Question: And the AUCinf [11]?
Answer: 1227 ng·h/mL and 886 ng·h/mL and 462 ng·h/mL and 1067 ng·h/mL and 349 ng·h/mL and 348 ng·h/mL and 292 ng·h/mL and 274 ng·h/mL

Question: And the CL [11]?
Answer: 6.0 L/h and 5.6 L/h and 10.1 L/h and 5.7 L/h and 10.3 L/h and 18.1 L/h and 15.9 L/h and 16.1 L/h

Question: What about the V [11] of the same molecule?
Answer: 24.5 L and 11.8 L and 7.3 L and 34.2 L and 4.7 L and 14.8 L and 21.1 L and 5.0 L

Question: What about the VSS [11] of the same molecule?
Answer: 33.8 L and 21.1 L and 16.5 L and 43.5 L and 14.0 L and 24.1 L and 30.4 L and 14.3 L

Question: What about the thalf [11] of the same molecule?
Answer: 4.1 h and 2.8 h and 1.4 h and 5.4 h and 1.3 h and 1.2 h and 1.5 h and 1.0 h

Question: And the AUC [12]?
Answer: 5905 ng·h/mL

Question: And the AUCinf [12]?
Answer: 1227 ng·h/mL

Question: What about the CL [12] of the same molecule?
Answer: 18.1 L/h

Question: What about the V [12] of the same molecule?
Answer: 34.2 L

Question: What about the VSS [12] of the same molecule?
Answer: 43.5 L

Question: What about the thalf [12] of the same molecule?
Answer: 5.4 h

Question: What about the AUC [13] of the same molecule?
Answer: 3224 ng·h/mL

Question: And the AUCinf [13]?
Answer: 613 ng·h/mL

Question: And the CL [13]?
Answer: 11.0 L/h

Question: And the V [13]?
Answer: 15.4 L

Question: What about the VSS [13] of the same molecule?
Answer: 24.7 L

Question: And the thalf [13]?
Answer: 2.3 h

Question: And the AUC [14]?
Answer: 2387 ng·h/mL

Question: What about the AUCinf [14] of the same molecule?
Answer: 405 ng·h/mL

Question: What about the CL [14] of the same molecule?
Answer: 10.2 L/h

Question: And the V [14]?
Answer: 13.3 L

Question: What about the VSS [14] of the same molecule?
Answer: 22.6 L

Question: What about the thalf [14] of the same molecule?
Answer: 1.5 h

Question: What about the AUC [15] of the same molecule?
Answer: 1636 ng·h/mL

Question: And the AUCinf [15]?
Answer: 274 ng·h/mL

Question: What about the CL [15] of the same molecule?
Answer: 5.6 L/h

Question: What about the V [15] of the same molecule?
Answer: 4.7 L

Question: What about the VSS [15] of the same molecule?
Answer: 14.0 L

Question: What about the thalf [15] of the same molecule?
Answer: 1.0 h

Question: What about the “Obs. AUCinf (based on weight)” value (Table 10, covariate model with eGFR, individual patient (ID 1-8)) of the same molecule?
Answer: 292 and 274 and 1227 and 886 and 462 and 1067 and 349 and 348

Question: What about the “Obs. AUCinf (based on weight)” value (Table 10, Max of 8 patients) of the same molecule?
Answer: 1227

Question: What about the “Obs. AUCinf (based on weight)” value (Table 10, Mean of 8 patients) of the same molecule?
Answer: 613

Question: And the “Obs. AUCinf (based on weight)” value (Table 10, Median of 8 patients)?
Answer: 405

Question: What about the “Obs. AUCinf (based on weight)” value (Table 10, Min of 8 patients) of the same molecule?
Answer: 274

Question: What about the “influence of body weight on clearance” value [16] of the same molecule?
Answer: not influenced by body weight

Question: What about the “influence of body weight on volume” value [16] of the same molecule?
Answer: influenced by body weight

Question: What about the “influence of renal function on clearance” value (renal function as Serum Creatinine or eGFR before treatment, exploratory covariate analysis) of the same molecule?
Answer: appears to be influenced be renal function
